Test results published in patent publication EP4748840A1, “IMIDAZO[1,2-A]PYRIDINE TYPE IRAK DEGRADATION AGENT AND USE THEREOF” (TAINUORUI (TIANJIN) BIOTECHNOLOGY CO., LTD, priority 2023, dated 2025).

Each molecule was assayed against T1, IRAK4 (Homo sapiens, UniProt Q9NWZ3) (assay: HiBiT-based intracellular degradation assay of THP1-HIBiT-IRAK4 cells). Details: half-maximal degradation concentration of IRAK4 protein, 24 h incubation.
T1 construct: expressed in transfected cells; host or cells: THP1 (THP1-HIBiT-IRAK4 engineered line)
T1 sequence (Q9NWZ3 1-460): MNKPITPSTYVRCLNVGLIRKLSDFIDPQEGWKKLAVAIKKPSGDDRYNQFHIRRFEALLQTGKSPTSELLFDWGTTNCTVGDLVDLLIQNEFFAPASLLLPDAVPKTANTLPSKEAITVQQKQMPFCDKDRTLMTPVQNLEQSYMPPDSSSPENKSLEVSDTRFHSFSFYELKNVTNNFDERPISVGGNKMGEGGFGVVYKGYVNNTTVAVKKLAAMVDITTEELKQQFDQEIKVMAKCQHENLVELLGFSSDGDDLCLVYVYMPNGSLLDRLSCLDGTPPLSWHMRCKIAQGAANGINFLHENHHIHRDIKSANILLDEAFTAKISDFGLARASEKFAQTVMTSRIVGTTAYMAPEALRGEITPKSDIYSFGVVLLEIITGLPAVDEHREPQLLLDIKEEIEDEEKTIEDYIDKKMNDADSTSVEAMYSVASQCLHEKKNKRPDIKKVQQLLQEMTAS
Assay type: cell-based
Procedure: HiBiT-based intracellular degradation assay of THP1-HIBiT-IRAK4 cells
THP1-HIBiT-IRAK4 cells were cultured in RPMI 1640 medium supplemented with 10% fetal bovine serum (FBS) and 1% penicillin-streptomycin (PS) (37°C and 5% CO2). The THP1-HIBiT-IRAK4 cells were inoculated in a 384-well plate at 5000 cells/40 µL/well. Compound solutions with different concentrations were added at 40 nL/well and incubated for 24 h at 37°C in 5% CO2. HiBiT lysis detection reagents were added to the wells, the plate was incubated for 30 min at room temperature, and luminescence values were read on Envision. [formula]
The DC50 (half-maximal degradation concentration) of each compound was obtained using XLfit software and the following nonlinear fitting equation: Y = bottom + (top−bottom)/(1+10^(∧)((LogDC50−X)×Hillslope)). [formula]
X denotes a log value of the compound concentration.
Y denotes the degradation rate.
Table 1 lists the results of DC50 values of IRAK4 protein degradation. […]

| SMILES | DC50 |
| --- | --- |
| CC(C)(O)c1cc2nc(C3CCN(CCOCCNc4cccc5c4C(=O)N(C4CCC(=O)NC4=O)C5=O)CC3)cn2cc1NC(=O)c1cccc(C(F)(F)F)n1 (centres unmarked) [Comparative Example 1, N-(2-(1-(2-(2-((2-(2,6-dioxopiperidin-3-yl)-1,3-dioxoisoindolin-4-yl)amino)ethoxy)ethyl)piperidin-4-yl)-7-(2-hydroxypropan-2-yl)imidazo[1,2-a]pyridin-6-yl)-6-(trifluoromethyl)pyridine-2-carboxamide, reference compound] | > 10000 nM |
| CC(C)(O)c1cc2nc(C3CCN(CCCCC#Cc4cccc5c4CN(C4CCC(=O)NC4=O)C5=O)CC3)cn2cc1NC(=O)c1cccc(C(F)(F)F)n1 (centres unmarked) [Comparative Example 2, N-(2-(1-(6-(2-(2,6-dioxopiperidin-3-yl)-1-oxoisoindolin-4-yl)hex-5-yn-1-yl)piperidin-4-yl)-7-(2-hydroxypropan-2-yl)imidazo[1,2-a]pyridin-6-yl)-6-(trifluoromethyl)pyridine-2-carboxamide, reference compound] | > 10000 nM |
| CC(C)(O)c1cc2nc(C3CCN(CC(=O)N4CCN(c5ccc6c(c5)C(=O)N(C5CCC(=O)NC5=O)C6=O)CC4)CC3)cn2cc1NC(=O)c1cccc(C(F)(F)F)n1 (centres unmarked) [Example 2, N-(2-(1-(2-(4-(2-(2,6-dioxopiperidin-3-yl)-1,3-dioxoisoindolin-5-yl)piperazin-1-yl)-2-oxoethyl)piperidin-4-yl)-7-(2-hydroxypropan-2-yl)imidazo[1,2-a]pyridin-6-yl)-6-(trifluoromethyl) pyridine-2-carboxamide] | 4.46 nM |
| COc1cc2nc(C3CCN(CC4CCN(c5ccc6c(c5)C(=O)N(C5CCC(=O)NC5=O)C6=O)CC4)CC3)cn2cc1NC(=O)c1cccc(C(F)(F)F)n1 (centres unmarked) [Example 8, N-(2-(1-((1-(2-(2,6-dioxopiperidin-3-yl)-1,3-dioxoisoindolin-5-yl)piperidin-4-yl)methyl)piperidin-4-yl)-7-methoxyimidazo[1,2-a]pyridin-6-yl)-6-(trifluoromethyl)pyridine-2-carboxamide] | 16.3 nM |
| CC(C)(O)c1cc2nc(C3CCN(CCN4CCN(c5ccc6c(c5)C(=O)N(C5CCC(=O)NC5=O)C6=O)CC4)CC3)cn2cc1NC(=O)c1cccc(C(F)(F)F)n1 (centres unmarked) [Example 9, N-(2-(1-(2-(4-(2-(2,6-dioxopiperidin-3-yl)-1,3-dioxoisoindolin-5-yl)piperazin-1-yl)ethyl)piperidin-4-yl)-7-(2-hydroxypropan-2-yl)imidazo[1,2-a]pyridin-6-yl)-6-(trifluoromethyl)pyridine-2-carboxamide] | 0.87 nM |
| CC(C)(O)c1cc2nc(C3CCN(CCN4CCN(c5ccc6c(c5)CN(C5CCC(=O)NC5=O)C6=O)CC4)CC3)cn2cc1NC(=O)c1cccc(C(F)(F)F)n1 (centres unmarked) [Example 10, N-(2-(1-(2-(4-(2-(2,6-dioxopiperidin-3-yl)-1-oxoisoindolin-5-yl)piperazin-1-yl)ethyl)piperidin-4-yl)-7-(2-hydroxypropan-2-yl)imidazo[1,2-a]pyridin-6-yl)-6-(trifluoromethyl)pyridine-2-carboxamide] | 0.51 nM |
| COc1cc2nc(C3CCN(CCN4CCN(c5ccc6c(c5)C(=O)N(C5CCC(=O)NC5=O)C6=O)CC4)CC3)cn2cc1NC(=O)c1cccc(C(F)(F)F)n1 (centres unmarked) [Example 11, N-(2-(1-(2-(4-(2-(2,6-dioxopiperidin-3-yl)-1,3-dioxoisoindolin-5-yl)piperazin-1-yl)ethyl)piperidin-4-yl)-7-methoxyimidazo[1,2-a]pyridin-6-yl)-6-(trifluoromethyl)pyridine-2-carboxamide] | 2.23 nM |
| CC(C)(O)c1cc2nc(C3CCN(CCN4CCN(c5ccc6c(c5)C(=O)N(C5CCC(=O)NC5=O)C6)CC4)CC3)cn2cc1NC(=O)c1cccc(C(F)(F)F)n1 (centres unmarked) [Example 13, N-(2-(1-(2-(4-(2-(2,6-dioxopiperidin-3-yl)-3-oxoisoindolin-5-yl)piperazin-1-yl)ethyl)piperidin-4-yl)-7-(2-hydroxypropan-2-yl)imidazo[1,2-a]pyridin-6-yl)-6-(trifluoromethyl)pyridine-2-carboxamide] | 0.64 nM |
| COc1cc2nc(C3CCN(CCN4CCN(c5ccc6c(c5)C(=O)N(C5CCC(=O)NC5=O)C6)CC4)CC3)cn2cc1NC(=O)c1cccc(C(F)(F)F)n1 (centres unmarked) [Example 14, N-(2-(1-(2-(4-(2-(2,6-dioxopiperidin-3-yl)-3-oxoisoindolin-5-yl)piperazin-1-yl)ethyl)piperidin-4-yl)-7-methoxyimidazo[1,2-a]pyridin-6-yl)-6-(trifluoromethyl)pyridine-2-carboxamide] | 1.33 nM |
| CC(C)(O)c1cc2nc(C3CCN(CCN4CCC5(CC4)CN(c4ccc6c(c4)C(=O)N(C4CCC(=O)NC4=O)C6=O)C5)CC3)cn2cc1NC(=O)c1cccc(C(F)(F)F)n1 (centres unmarked) [Example 16, N-(2-(1-(2-(2-(2-(2,6-dioxopiperidin-3-yl)-1,3-dioxoisoindolin-5-yl)-2,7-diazaspiro[3.5]nonan-7-yl)ethyl)piperidin-4-yl)-7-(2-hydroxypropan-2-yl)imidazo[1,2-a]pyridin-6-yl)-6-(trifluoromethyl)pyridine-2-carboxamide] | 3.33 nM |

Now from value to molecule:

| DC50 | SMILES |
| --- | --- |
| 13.9 nM | CC(C)(O)c1cc2nc(C3CCN(CCC(=O)N4CCN(c5ccc6c(c5)C(=O)N(C5CCC(=O)NC5=O)C6=O)CC4)CC3)cn2cc1NC(=O)c1cccc(C(F)(F)F)n1 (centres unmarked) [Example 3, N-(2-(1-(3-(4-(2-(2,6-dioxopiperidin-3-yl)-1,3-dioxoisoindolin-5-yl)piperazin-1-yl)-3-oxopropyl)piperidin-4-yl)-7-(2-hydroxypropan-2-yl)imidazo[1,2-a]pyridin-6-yl)-6-(trifluoromethyl)pyridine-2-carboxamide] |
| 5.05 nM | CC(C)(O)c1cc2nc(C3CCN(CCCC(=O)N4CCN(c5ccc6c(c5)C(=O)N(C5CCC(=O)NC5=O)C6=O)CC4)CC3)cn2cc1NC(=O)c1cccc(C(F)(F)F)n1 (centres unmarked) [Example 4, N-(2-(1-(4-(4-(2-(2,6-dioxopiperidin-3-yl)-1,3-dioxoisoindolin-5-yl)piperazin-1-yl)-4-oxobutyl)piperidin-4-yl)-7-(2-hydroxypropan-2-yl)imidazo[1,2-a]pyridin-6-yl)-6-(trifluoromethyl)pyridine-2-carboxamide] |
| 3.69 nM | CC(C)(O)c1cc2nc(C3CCN(CC(=O)N4CCC5(CC4)CN(c4ccc6c(c4)C(=O)N(C4CCC(=O)NC4=O)C6=O)C5)CC3)cn2cc1NC(=O)c1cccc(C(F)(F)F)n1 (centres unmarked) [Example 5, N-(2-(1-(2-(2-(2-(2,6-dioxopiperidin-3-yl)-1,3-dioxoisoindolin-5-yl)-2,7-diazaspiro[3.5]nonan-7-yl)-2-oxoethyl)piperidin-4-yl)-7-(2-hydroxypropan-2-yl)imidazo[1,2-a]pyridin-6-yl)-6-(trifluoromethyl)pyridine-2-carboxamide] |
| 7.83 nM | CC(C)(O)c1cc2nc(C3CCN(CC(=O)N4CC5(CCN(c6ccc7c(c6)C(=O)N(C6CCC(=O)NC6=O)C7=O)CC5)C4)CC3)cn2cc1NC(=O)c1cccc(C(F)(F)F)n1 (centres unmarked) [Example 6, N-(2-(1-(2-(7-(2-(2,6-dioxopiperidin-3-yl)-1,3-dioxoisoindolin-5-yl)-2,7-diazaspiro[3.5]nonan-2-yl)-2-oxoethyl)piperidin-4-yl)-7-(2-hydroxypropan-2-yl)imidazo[1,2-a]pyridin-6-yl)-6-(trifluoromethyl)pyridine-2-carboxamide] |
| 1.36 nM | CC(C)(O)c1cc2nc(C3CCN(CC4CCN(c5ccc6c(c5)CN(C5CCC(=O)NC5=O)C6=O)CC4)CC3)cn2cc1NC(=O)c1cccc(C(F)(F)F)n1 (centres unmarked) [Example 7, N-(2-(1-((1-(2-(2,6-dioxopiperidin-3-yl)-1-oxoisoindolin-5-yl)piperidin-4-yl)methyl)piperidin-4-yl)-7-(2-hydroxypropan-2-yl)imidazo[1,2-a]pyridin-6-yl)-6-(trifluoromethyl)pyridine-2-carboxamide] |
| 1.05 nM | COc1cc2nc(C3CCN(CCN4CCN(c5ccc6c(c5)CN(C5CCC(=O)NC5=O)C6=O)CC4)CC3)cn2cc1NC(=O)c1cccc(C(F)(F)F)n1 (centres unmarked) [Example 12, N-(2-(1-(2-(4-(2-(2,6-dioxopiperidin-3-yl)-1-oxoisoindolin-5-yl)piperazin-1-yl)ethyl)piperidin-4-yl)-7-methoxyimidazo[1,2-a]pyridin-6-yl)-6-(trifluoromethyl)pyridine-2-carboxamide] |
| 4.86 nM | CC(C)(O)c1cc2nc(C3CCN(CCN4CC5(CCN(c6ccc7c(c6)C(=O)N(C6CCC(=O)NC6=O)C7=O)CC5)C4)CC3)cn2cc1NC(=O)c1cccc(C(F)(F)F)n1 (centres unmarked) [Example 17, N-(2-(1-(2-(7-(2-(2,6-dioxopiperidin-3-yl)-1,3-dioxoisoindolin-5-yl)-2,7-diazaspiro[3.5]nonan-2-yl)ethyl)piperidin-4-yl)-7-(2-hydroxypropan-2-yl)imidazo[1,2-a]pyridin-6-yl)-6-(trifluoromethyl)pyridine-2-carboxamide] |
